Reference: patent US5344843A, “Cat-1 inhibitors, pharmaceutical compositions and methods of use” (Hoffman-La Roche Inc., priority 1992, dated 1994)

target: T1, CAT-1 (carnitine acyltransferase 1) (Rattus norvegicus, UniProt Q63704); assay: Primary Screen--Inhibition of CAT-1 in isolated mitochondria; assay type: biochemical; conditions: rat heart mitochondria, reduction of palmitoyl carnitine formation by 50%; read-out: Primary Screen IC50
T1 construct: This preparation is used as the isolated mitochondrial preparation; from tissue; host or cells: rat heart (atria removed), isolated mitochondria
T1 sequence (Q63704 1-772): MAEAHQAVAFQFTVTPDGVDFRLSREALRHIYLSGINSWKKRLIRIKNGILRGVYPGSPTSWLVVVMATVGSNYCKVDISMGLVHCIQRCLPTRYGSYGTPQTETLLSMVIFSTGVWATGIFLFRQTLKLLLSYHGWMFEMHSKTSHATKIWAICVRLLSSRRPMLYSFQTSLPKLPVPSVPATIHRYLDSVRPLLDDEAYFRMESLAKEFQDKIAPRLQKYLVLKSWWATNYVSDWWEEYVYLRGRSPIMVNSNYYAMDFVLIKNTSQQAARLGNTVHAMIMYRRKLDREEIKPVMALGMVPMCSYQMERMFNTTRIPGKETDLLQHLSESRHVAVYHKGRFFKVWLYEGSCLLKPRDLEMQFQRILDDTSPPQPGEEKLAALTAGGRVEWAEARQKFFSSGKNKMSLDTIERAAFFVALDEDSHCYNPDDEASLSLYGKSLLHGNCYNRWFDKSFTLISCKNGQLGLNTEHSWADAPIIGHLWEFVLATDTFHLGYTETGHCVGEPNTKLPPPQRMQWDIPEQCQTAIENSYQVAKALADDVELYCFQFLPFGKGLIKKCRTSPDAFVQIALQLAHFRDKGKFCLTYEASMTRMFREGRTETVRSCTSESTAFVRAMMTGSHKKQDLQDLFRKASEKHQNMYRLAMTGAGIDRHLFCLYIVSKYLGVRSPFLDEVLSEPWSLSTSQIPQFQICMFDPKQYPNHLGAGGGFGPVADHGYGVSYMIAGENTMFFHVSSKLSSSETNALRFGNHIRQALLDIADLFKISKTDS
Experimental: Primary Screen--Inhibitors of CAT-1 in 1Mitochondria
(a). Preparation of Mitochondria
The heart is rapidly removed from an anesthetized rat (sodium pentabarbitol) and placed in ice-cold homogenization buffer (sucrose, 250 mM; Tris, 10 mM; EDTA, 1 mM; BSA, 0.01%; pH=7.4). The atria and extraneous tissue are removed and the remainder is chopped with scissors. The pieces are rinsed in homogenization buffer before being homogenized in 10 mL of the same buffer for 5-7 seconds. The homogenate is then diluted with homogenization buffer (40 total volume) and centrifuged at 200 g for 20 minutes. The supernatant is withdrawn and centrifuged at 7000 g for 20 minutes and the resulting pellet is isolated, resuspended in 40 mL of homogenization buffer and centrifuged once more at 7000 g for 20 minutes. The isolated pellet is resuspended in 10 mL of homogenization buffer and stored at 4° C. until use. This preparation is used as the isolated mitochondrial preparation.
(b). Inhibition of CAT-1 assay
Isolated mitochondria (20 μL) are incubated with 60 μL of Tris/sucrose buffer (sucrose, 500 mM; Tris, 20 mM; KCl, 100 mM; EDTA, 2 mM; pH=7.0 plus 83 μM palmitoyl CoA, and BSA, 0.8 mg/mL and 10^-4 to 10^-10 M of the drug to be tested. After 10 minutes at 30° C., the reaction is started by addition of 10 μL of ^3 H-carnitine (final concentration=250 μM). After 5 minutes, the reaction is terminated by the addition of ice cold 70% perchloric acid (PCA). The precipitated solids so formed, containing the insoluble product of the enzyme palmitoyl carnitine, are captured on filter paper. The filter paper is washed with 7% PCA, then dried and placed in scintillation vials with 10 mL of scintillant (Aquasol, New England Nuclear) and counted for radioactivity. The rate of the reaction is assessed by the difference in radioactivity between zero time and five minutes in the absence of test compound. The ability of test compounds at selected concentrations to inhibit CAT-1 is determined by their ability to reduce the formation of the radioactive product. The IC50 of the test compound is the concentration of test compound that reduces the formation of radioactive product by 50%.

| Compound | IC50 |
| --- | --- |
| Cc1cc(OCCOc2ccc3ccccc3c2)ccc1C(=O)C(=O)O [Example 183, 2-methyl-4-[2-(2-naphthalenyloxy)ethoxy]-alpha-oxobenzeneacetic acid (4:1) hydrate] | 4700 nM |
| O=C(O)C(=O)c1ccc(OCCCc2ccc(F)cc2)cc1 [Example 27, 4-[[3-(4-fluorophenyl)propyl]oxy]-alpha-oxobenzeneacetic acid] | 3000 nM |
| O=C(O)C(=O)c1ccc(OCCOC2CCc3ccccc3C2)cc1 (racemic) [Example 114, rac.-alpha-oxo-4-[[2-(1,2,3,4-tetrahydro-2-naphthalenyloxy)ethyl]oxy]benzeneacetic acid] | 2800 nM |
| O=C(O)C(=O)c1ccc(OCC#Cc2ccccc2)cc1 [Example 35, alpha-oxo-4-[(3-phenyl-2-propynyl)oxy]benzeneacetic acid] | 400 nM |
| O=C(O)C(=O)c1ccc(OC/C=C/c2ccccc2)cc1 [Example 31, (E)-alpha-oxo-4-[(3-phenyl-2-propenyl)oxy]benzeneacetic acid] | 100 nM |
| COC(=O)C(=O)c1ccc(OCCOc2ccc3cc(OC(C)=O)ccc3c2)cc1 [Example 138, 4-[[2-[6-(Acetyloxy)-2-naphthalenyloxy]ethyl]oxy]-alpha-oxobenzeneacetic acid methyl ester] | 8900 nM |
| COCCOc1ccc(C(=O)C(=O)O)cc1 [Example 97, 4-[[2-(methoxy)ethyl]oxy]-alphaoxobenzeneacetic acid] | 30000 nM |
| O=C(O)C(=O)c1c(Cl)cc(OCCOc2ccc3ccccc3c2)cc1Cl [Example 191, 2,6-dichloro-4-[2-(2-naphthalenyloxy)ethoxy]-alpha-oxobenzeneacetic acid] | 6700 nM |
| C=CCO/N=C(\C(=O)O)c1ccc(OCCOc2ccc3ccccc3c2)s1 [Example 313, (E)-5-[2-(2-naphthalenyloxy)ethoxy]-alpha-[(2-propenyloxy)imino]-2-thiopheneacetic acid] | 270 nM |
| COc1ccc(OCCOc2ccc(C(=O)C(=O)O)cc2)cc1 [Example 61, 4-[[2-(4-methoxyphenoxy)ethyl]oxy]-alpha-oxobenzeneacetic acid] | 2000 nM |
| C=CCO/N=C(/C(=O)O)c1ccc(OCCOc2ccc3ccccc3c2)s1 [Example 312, (Z)-5-[2-(2-naphthalenyloxy)ethoxy]-alpha-[(2-propenyloxy)imino]-2-thiopheneacetic acid] | 100 nM |
| O=C(O)C(=O)c1ccc(OCC(=O)c2ccccc2-c2ccccc2)cc1 [Example 288, 4-[2-[[1,1'-biphenyl]-2-yl]-2-oxoethoxy]-alpha-oxobenzeneacetic acid] | 1400 nM |
| O=C(O)C(=O)c1ccc(OCCOc2cc3ccccc3cc2OCCOc2ccccc2)cc1 [Example 116, alpha-oxo-4-[[2-[3-(2-phenoxyethoxy)-2-naphthalenyloxy]ethyl]oxy]benzeneacetic acid] | 650 nM |
| O=C(O)C(=O)c1ccc(OCCOc2ccccc2F)cc1 [Example 39, 4-[[2-(2-fluorophenoxy)ethyl]oxy]-alpha-oxobenzeneacetic acid] | 600 nM |
| O=C(O)C(=O)c1ccc(OCCCCSc2ccc3ccccc3c2)cc1 [Example 92, 4-[[4-(2-naphthalenylthio)butyl]oxy]-alpha-oxobenzeneacetic acid] | 3500 nM |
| O=C(O)C(=O)c1ccc(OCCOc2ccc(Cl)cc2)cc1 [Example 45, 4-[[2-(4-chlorophenoxy)ethyl]oxy]-alpha-oxobenzeneacetic acid] | 300 nM |
| O=C(O)C(=O)c1ccc(OCCOc2ccc(F)cc2)cc1 [Example 43, 4-[[2-(4-fluorophenoxy)ethyl]oxy]-alpha-oxobenzeneacetic acid] | 800 nM |

| Compound | IC50 |
| --- | --- |
| O=C(O)C(=O)c1ccc(OCCOc2ccnc3ccccc23)cc1 [Example 131, alpha-oxo-4-[[2-(4-quinolyloxy)ethyl]oxy]benzeneacetic acid] | 960 nM |
| O=C(O)/C(=N\OCc1ccccc1)c1ccc(OCCOc2ccc3ccccc3c2)s1 [Example 316, (E)-5-[2-(2-naphthalenyloxy)ethoxy]-alpha-[(phenylmethoxy)imino]-2-thiopheneacetic acid] | 500 nM |
| CCCc1c(OCCCOc2ccc(C(=O)C(=O)O)cc2)ccc(C(=O)OC)c1O [Example 268, 4-[3-[3-hydroxy-4-(methoxycarbonyl)-2-propylphenoxy)propoxy]-alpha-oxobenzeneacetic acid] | 230 nM |
| O=C(O)C(=O)c1ccc(OCCOc2cc3ccccc3cc2O)cc1 [Example 121, 4-[[2-(3-hydroxy-2-naphthalenyloxy)ethyl]oxy]-alpha-oxobenzeneacetic acid] | 300 nM |
| O=C(O)C(=O)c1ccc(OCCOc2cc3ccccc3cc2OCCO)cc1 [Example 118, 4-[[2-[3-(2-hydroxyethoxy)-2-naphthalenyloxy]ethyl]oxy]-alpha-oxobenzeneacetic acid] | 250 nM |
| O=C(O)C(=O)c1ccc(OC/C=C/c2ccc(F)cc2)cc1 [Example 29, (E)-4-[[3-(4-fluorophenyl)-2-propenyl]oxy]-alpha-oxobenzeneacetic acid] | 250 nM |
| O=C(O)C(=O)c1ccc(OCCCCCCc2cccc(OCc3ccccc3)c2OCc2ccccc2)cc1 [Example 259, 4-[6-[2,3-bis-(phenylmethoxy)phenyl]hexyloxy]-alpha-oxobenzeneacetic acid] | 1200 nM |
| CN(C)/N=C(\C(=O)O)c1ccc(OCCOc2ccc3ccccc3c2)cc1 [Example 321, (Z)-alpha-(dimethylhydrazono)-4-[2-(2-naphthalenyloxy)ethoxy]benzeneaceticacid] | 6500 nM |
| O=C(O)C(=O)c1ccc(OCCOc2ccc(C(F)(F)F)cc2)cc1 [Example 51, alpha-oxo-4-[[2-(4-trifluoromethylphenoxy)ethyl]oxy]benzeneacetic acid] | 800 nM |
| NS(=O)(=O)c1ccc(OCCOc2ccc(C(=O)C(=O)O)cc2)cc1 [Example 53, 4-[[2-[4-(aminosulfonyl)phenoxy]ethyl]oxy]-alpha-oxobenzeneacetic acid] | 4000 nM |
| O=C(O)C(=O)c1ccc(OCCOc2cccc(F)c2)cc1 [Example 41, 4-[[2-(3-fluorophenoxy)ethyl]oxy]-alpha-oxobenzeneacetic acid] | 1000 nM |
| CN(C)/N=C(/C(=O)O)c1ccc(OCCOc2ccc3ccccc3c2)cc1 [Example 320, (E)-alpha-(dimethylhydrazono)-4-[2-(2-naphthalenyloxy)ethoxy]benzeneaceticacid] | 1800 nM |
| O=C(O)C(=O)c1ccc(OCCOc2ccc3c(c2)CCCC3)cc1 [Example 112, alpha-oxo-4-[[2-(5,6,7,8-tetrahydro-2-naphthalenyloxy)ethyl]oxy]benzeneacetic acid] | 200 nM |
| Cc1cc(C)c(C(=O)COc2ccc(C(=O)C(=O)O)cc2)c(C)c1 [Example 292, 4-[2-oxo-2-(2,4,6-trimethylphenyl]ethoxy]-alpha-oxobenzeneacetic acid] | 4500 nM |
| CCCc1c(OCCCOc2ccc(C(=O)C(=O)O)cc2)ccc(C(=O)O)c1O [Example 269, 4-[3-[4-carboxy-3-hydroxy-2-propylphenoxy)propoxy]-alpha-oxobenzeneacetic acid] | 1800 nM |
| O=C(O)C(=O)c1ccc(OCCc2ccccc2)cc1 [Example 21, 4-[(2-phenylethyl)oxy]-alpha-oxobenzeneacetic acid] | 12000 nM |
